Results from patent EP4806435A1, “DIHYDROCHROMENE-DERIVATIVE-CONTAINING THERAPEUTIC AGENT FOR CANCER” (Sumitomo Pharma Co., Ltd., priority 2023, dated 2025).
Like-named read-outs stand apart in the source and are kept apart here.

Assay: Phase 1 clinical trial: plasma pharmacokinetics
Assay type: in vivo, human
Settings: for Tmax / half-life / Cmax / AUC / AUC(0-t): human, plasma, oral; for half-life: read-out: Effective T1/2 (converted); for AUC: tau = 24 hours
Experimental: Summary statistics based on preliminary data were obtained for the pharmacokinetics of Compound 1 in patients receiving once-daily doses ranging from 20 mg to 240 mg (Table 5). The mean plasma concentration-time curves of Compound 1 in the once-daily dose groups ranging from 20 mg to 240 mg are shown in Figure 11. In this study, one cycle consists of 28 days, and Cycle 1 Day 1 refers to Day 1 of the first cycle. […] Accumulation was observed after repeated administration. […] Based on these accumulation ratios, the half-life of Compound 1 was estimated to be approximately 4 days. Based on the currently available data, plasma concentrations are considered to have reached steady state by Day 15.
Summary statistics based on preliminary data were obtained for the pharmacokinetics of Compound 1 in patients in the 20 mg QD, 40 mg QD, 80 mg QD, 120 mg QD, 180 mg QD, 240 mg QD, 360 mg QD, and 480 mg daily (240 mg BID) dose groups (Table 6). The mean plasma concentration-time curves of Compound 1 in the 20 mg QD to 480 mg daily (240 mg BID) dose groups are shown in Figure 12 (in Figure 12, Compound 1 is denoted as "DSP-0390"). In this study, one cycle consists of 28 days, and Cycle 1 Day 1 refers to Day 1 of the first cycle. […] The median Tmax ranged from 2 to 8 hours. Accumulation was observed after repeated administration, and assuming linearity based on the observed accumulation ratios, the estimated elimination half-life was considered to be on the order of several days (approximately 1 to 6 days) (data cut-off: March 2024).

[1] = 480 mg (240 mg BID), cut-off March 2024

Compound: CC1(C)Oc2cc(Cl)ccc2[C@@H]2OCC3(CCN(CCn4ccnc4)CC3)C[C@H]21 [Compound 1, (4'aR,10'bR)-8'-chloro-1-[2-(1H-imidazol-1-yl)ethyl]-5',5'-dimethyl-4'a,10'b-dihydro-2'H,4'H,5'H-spiro[piperidine-4,3'-pyrano[3,2-c][1]benzopyran] diphosphate]
- AR AUC (accumulation ratio) (20 mg QD, cut-off March 2024): 7.31
- AR Cmax (accumulation ratio) (20 mg QD, cut-off March 2024): 6.52
- AR AUC (mean accumulation ratio) (20 mg, QD, cut-off April 2023): 7.4
- AR Cmax (mean accumulation ratio) (20 mg, QD, cut-off April 2023): 6.1
- AR AUC (accumulation ratio) (40 mg QD, cut-off March 2024): 8.93
- AR Cmax (accumulation ratio) (40 mg QD, cut-off March 2024): 6.04
- AR AUC (mean accumulation ratio) (40 mg, QD, cut-off April 2023): 8.6
- AR Cmax (mean accumulation ratio) (40 mg, QD, cut-off April 2023): 6.2
- AR AUC (accumulation ratio) (80 mg QD, cut-off March 2024): 4.47
- AR Cmax (accumulation ratio) (80 mg QD, cut-off March 2024): 3.70
- AR AUC (mean accumulation ratio) (80 mg, QD, cut-off April 2023): 6.9
- AR Cmax (mean accumulation ratio) (80 mg, QD, cut-off April 2023): 5.8
- AR AUC (accumulation ratio) (120 mg QD, cut-off March 2024): 4.52
- AR Cmax (accumulation ratio) (120 mg QD, cut-off March 2024): 3.53
- AR AUC (mean accumulation ratio) (120 mg, QD, cut-off April 2023): 5.3
- AR Cmax (mean accumulation ratio) (120 mg, QD, cut-off April 2023): 4.6
- AR AUC (accumulation ratio) (180 mg QD, cut-off March 2024): 3.55
- AR Cmax (accumulation ratio) (180 mg QD, cut-off March 2024): 1.89
- AR AUC (mean accumulation ratio) (180 mg, QD, N=1, cut-off April 2023): 3.9
- AR Cmax (mean accumulation ratio) (180 mg, QD, cut-off April 2023): 2
- AR AUC (accumulation ratio) (240 mg QD, cut-off March 2024): 3.29
- AR Cmax (accumulation ratio) (240 mg QD, cut-off March 2024): 1.79
- AR AUC (mean accumulation ratio) (240 mg, QD, N=1, cut-off April 2023): 3.9
- AR Cmax (mean accumulation ratio) (240 mg, QD, cut-off April 2023): 2.6
- AR AUC (accumulation ratio) (360 mg QD, cut-off March 2024): 2.07
- AR Cmax (accumulation ratio) (360 mg QD, cut-off March 2024): 1.36
- AR AUC (accumulation ratio) [1]: 1.61
- AR Cmax (accumulation ratio) [1]: 2.42
- half-life estimated from accumulation ratios (cut-off April 2023): approximately 4 days
- Tmax (20 mg QD to 480 mg daily (240 mg BID), cut-off March 2024, read-out: median Tmax, range over dose groups): 2 to 8 h
- half-life (20 mg, 20 mg QD, cut-off March 2024): 113 h
- Cmax (20 mg, Cycle 1, Day 1, 20 mg QD, cut-off March 2024, read-out: Cmax): 4.28 ng/mL
- Tmax (20 mg, Cycle 1, Day 1, 20 mg QD, cut-off March 2024, read-out: Tmax [a] median value): 6 h
- AUC (20 mg, Cycle 1, Day 1, 20 mg QD, cut-off March 2024, read-out: AUCtau [b]): 76.6 ng·h/mL
- AUC(0-t) (20 mg, Cycle 1 Day 1, 20 mg, QD, cut-off April 2023, read-out: AUC0-24 (geometric mean)): 76 ng·h/mL
- AUC(0-t) (20 mg, Cycle 1 Day 1, 20 mg, QD, cut-off April 2023, read-out: AUC0-24 (mean)): 77 ng·h/mL
- AUC(0-t) (20 mg, Cycle 1 Day 1, 20 mg, QD, cut-off April 2023, read-out: AUC0-24 (median)): 77 ng·h/mL
- Cmax (20 mg, Cycle 1 Day 1, 20 mg, QD, cut-off April 2023, read-out: Cmax (geometric mean)): 4 ng/mL
- Cmax (20 mg, Cycle 1 Day 1, 20 mg, QD, cut-off April 2023, read-out: Cmax (mean)): 4 ng/mL
- Cmax (20 mg, Cycle 1 Day 1, 20 mg, QD, cut-off April 2023, read-out: Cmax (median)): 4 ng/mL
- Tmax (20 mg, Cycle 1 Day 1, 20 mg, QD, cut-off April 2023, read-out: Tmax (mean)): 6 h
- Tmax (20 mg, Cycle 1 Day 1, 20 mg, QD, cut-off April 2023, read-out: Tmax (median)): 6 h
- Cmax (20 mg, Cycle 2, Day 1, 20 mg QD, cut-off March 2024, read-out: Cmax,ss): 27.9 ng/mL
- Tmax (20 mg, Cycle 2, Day 1, 20 mg QD, cut-off March 2024, read-out: Tmax,ss [a] median value): 7 h
- AUC (20 mg, Cycle 2, Day 1, 20 mg QD, cut-off March 2024, read-out: AUCtau,ss [b]): 560 ng·h/mL
- AUC(0-t) (20 mg, Cycle 2 Day 1, 20 mg, QD, cut-off April 2023, read-out: AUC0-24 (geometric mean)): 557 ng·h/mL
- AUC(0-t) (20 mg, Cycle 2 Day 1, 20 mg, QD, cut-off April 2023, read-out: AUC0-24 (mean)): 561 ng·h/mL
- AUC(0-t) (20 mg, Cycle 2 Day 1, 20 mg, QD, cut-off April 2023, read-out: AUC0-24 (median)): 561 ng·h/mL
- Cmax (20 mg, Cycle 2 Day 1, 20 mg, QD, cut-off April 2023, read-out: Cmax (geometric mean)): 28 ng/mL
- Cmax (20 mg, Cycle 2 Day 1, 20 mg, QD, cut-off April 2023, read-out: Cmax (mean)): 28 ng/mL
- Cmax (20 mg, Cycle 2 Day 1, 20 mg, QD, cut-off April 2023, read-out: Cmax (median)): 28 ng/mL
- Tmax (20 mg, Cycle 2 Day 1, 20 mg, QD, cut-off April 2023, read-out: Tmax (mean)): 7 h
- Tmax (20 mg, Cycle 2 Day 1, 20 mg, QD, cut-off April 2023, read-out: Tmax (median)): 7 h
- half-life (40 mg, 40 mg QD, cut-off March 2024): 139 h
- Cmax (40 mg, Cycle 1, Day 1, 40 mg QD, cut-off March 2024, read-out: Cmax): 9.87 ng/mL
- Tmax (40 mg, Cycle 1, Day 1, 40 mg QD, cut-off March 2024, read-out: Tmax [a] median value): 8 h
- AUC (40 mg, Cycle 1, Day 1, 40 mg QD, cut-off March 2024, read-out: AUCtau [b]): 131 ng·h/mL
- AUC(0-t) (40 mg, Cycle 1 Day 1, 40 mg, QD, cut-off April 2023, read-out: AUC0-24 (geometric mean)): 123 ng·h/mL
- AUC(0-t) (40 mg, Cycle 1 Day 1, 40 mg, QD, cut-off April 2023, read-out: AUC0-24 (mean)): 132 ng·h/mL
- AUC(0-t) (40 mg, Cycle 1 Day 1, 40 mg, QD, cut-off April 2023, read-out: AUC0-24 (median)): 107 ng·h/mL
- Cmax (40 mg, Cycle 1 Day 1, 40 mg, QD, cut-off April 2023, read-out: Cmax (geometric mean)): 8 ng/mL
- Cmax (40 mg, Cycle 1 Day 1, 40 mg, QD, cut-off April 2023, read-out: Cmax (mean)): 10 ng/mL
- Cmax (40 mg, Cycle 1 Day 1, 40 mg, QD, cut-off April 2023, read-out: Cmax (median)): 7 ng/mL
- Tmax (40 mg, Cycle 1 Day 1, 40 mg, QD, cut-off April 2023, read-out: Tmax (mean)): 11 h
- Tmax (40 mg, Cycle 1 Day 1, 40 mg, QD, cut-off April 2023, read-out: Tmax (median)): 8 h
- Cmax (40 mg, Cycle 2, Day 1, 40 mg QD, cut-off March 2024, read-out: Cmax,ss): 59.6 ng/mL
- Tmax (40 mg, Cycle 2, Day 1, 40 mg QD, cut-off March 2024, read-out: Tmax,ss [a] median value): 4 h
- AUC (40 mg, Cycle 2, Day 1, 40 mg QD, cut-off March 2024, read-out: AUCtau,ss [b]): 1170 ng·h/mL
- AUC(0-t) (40 mg, Cycle 2 Day 1, 40 mg, QD, cut-off April 2023, read-out: AUC0-24 (geometric mean)): 1110 ng·h/mL
- AUC(0-t) (40 mg, Cycle 2 Day 1, 40 mg, QD, cut-off April 2023, read-out: AUC0-24 (mean)): 1180 ng·h/mL
- AUC(0-t) (40 mg, Cycle 2 Day 1, 40 mg, QD, cut-off April 2023, read-out: AUC0-24 (median)): 1370 ng·h/mL
- Cmax (40 mg, Cycle 2 Day 1, 40 mg, QD, cut-off April 2023, read-out: Cmax (geometric mean)): 56 ng/mL
- Cmax (40 mg, Cycle 2 Day 1, 40 mg, QD, cut-off April 2023, read-out: Cmax (mean)): 60 ng/mL
- Cmax (40 mg, Cycle 2 Day 1, 40 mg, QD, cut-off April 2023, read-out: Cmax (median)): 72 ng/mL
- Tmax (40 mg, Cycle 2 Day 1, 40 mg, QD, cut-off April 2023, read-out: Tmax (mean)): 5 h
- Tmax (40 mg, Cycle 2 Day 1, 40 mg, QD, cut-off April 2023, read-out: Tmax (median)): 4 h
- half-life (80 mg, 80 mg QD, cut-off March 2024): 64.8 h
- Cmax (80 mg, Cycle 1, Day 1, 80 mg QD, cut-off March 2024, read-out: Cmax): 17.1 ng/mL
- Tmax (80 mg, Cycle 1, Day 1, 80 mg QD, cut-off March 2024, read-out: Tmax [a] median value): 8 h
- AUC (80 mg, Cycle 1, Day 1, 80 mg QD, cut-off March 2024, read-out: AUCtau [b]): 264 ng·h/mL
- AUC(0-t) (80 mg, Cycle 1 Day 1, 80 mg, QD, cut-off April 2023, read-out: AUC0-24 (geometric mean)): 203 ng·h/mL
- AUC(0-t) (80 mg, Cycle 1 Day 1, 80 mg, QD, cut-off April 2023, read-out: AUC0-24 (mean)): 268 ng·h/mL
- AUC(0-t) (80 mg, Cycle 1 Day 1, 80 mg, QD, cut-off April 2023, read-out: AUC0-24 (median)): 205 ng·h/mL
- Cmax (80 mg, Cycle 1 Day 1, 80 mg, QD, cut-off April 2023, read-out: Cmax (geometric mean)): 13 ng/mL
- Cmax (80 mg, Cycle 1 Day 1, 80 mg, QD, cut-off April 2023, read-out: Cmax (mean)): 17 ng/mL
- Cmax (80 mg, Cycle 1 Day 1, 80 mg, QD, cut-off April 2023, read-out: Cmax (median)): 15 ng/mL
- Tmax (80 mg, Cycle 1 Day 1, 80 mg, QD, cut-off April 2023, read-out: Tmax (mean)): 8 h
- Tmax (80 mg, Cycle 1 Day 1, 80 mg, QD, cut-off April 2023, read-out: Tmax (median)): 8 h
- Cmax (80 mg, Cycle 2, Day 1, 80 mg QD, cut-off March 2024, read-out: Cmax,ss): 63.2 ng/mL
- Tmax (80 mg, Cycle 2, Day 1, 80 mg QD, cut-off March 2024, read-out: Tmax,ss [a] median value): 8 h
- AUC (80 mg, Cycle 2, Day 1, 80 mg QD, cut-off March 2024, read-out: AUCtau,ss [b]): 1180 ng·h/mL
- AUC(0-t) (80 mg, Cycle 2 Day 1, 80 mg, QD, cut-off April 2023, read-out: AUC0-24 (geometric mean)): 1100 ng·h/mL
- AUC(0-t) (80 mg, Cycle 2 Day 1, 80 mg, QD, cut-off April 2023, read-out: AUC0-24 (mean)): 1190 ng·h/mL
- AUC(0-t) (80 mg, Cycle 2 Day 1, 80 mg, QD, cut-off April 2023, read-out: AUC0-24 (median)): 1110 ng·h/mL
- Cmax (80 mg, Cycle 2 Day 1, 80 mg, QD, cut-off April 2023, read-out: Cmax (geometric mean)): 58 ng/mL
- Cmax (80 mg, Cycle 2 Day 1, 80 mg, QD, cut-off April 2023, read-out: Cmax (mean)): 63 ng/mL
